Read-outs that look alike come from different tables or passages of the source.
Assays:
[1] = test system: human multiple myeloma cell line, OPM-2; test: Cell viability assay (OPM-2 10 FBS), CellTiter-Glo; type: cell-based
Procedure, shortened: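 Steps: plate cells at 3000/well in 10% FBS growth medium, add serially diluted compound, incubate 16 h at 37 °C with 5% CO2, add detection reagent and read luminescence after 25 min. A 4-parameter logistic model gives IC50.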

[2] = biological target: recombinant human Mcl-1 (residues 171-327) / Bim interaction (Homo sapiens (Human), UniProt Q07820); test: biochemical; type: binding; details: read-out: Mcl-1 HTRF IC50
recombinant human Mcl-1 (residues 171-327) / Bim interaction, sequence (Q07820 171-327): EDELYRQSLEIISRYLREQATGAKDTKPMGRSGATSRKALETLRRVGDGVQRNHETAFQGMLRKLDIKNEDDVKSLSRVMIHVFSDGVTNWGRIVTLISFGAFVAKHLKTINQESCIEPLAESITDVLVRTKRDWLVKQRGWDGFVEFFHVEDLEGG

[3] = Homo sapiens, OPM-2, 16 h, read-out: OPM-2 10% FBS IC50 IP, OPM-2 cells, 10% FBS, 16 h, CellTiter-Glo
[4] = TR-FRET, Mcl-1(171-327) / biotin-Bim (51-76)
[5] = read-out: OPM-2 10% FBS IC50 IP, OPM-2 cells, 10% FBS, 16 h, CellTiter-Glo
[6] = read-out: OPM-2 10% FBS IC50 IP, OPM-2 cells, 10% FBS, 16 h incubation
[7] = 0.1 nM Mcl-1(171-327), 0.05 nM biotin-Bim (51-76)

SMILES | IC50 [1, 3] [nM] | IC50 [2, 4] [nM] | also measured
COC[C@]1(O)CCC[C@H](C)[C@@H](C)S(=O)(=O)NC(=O)c2ccc3c(c2)N(C[C@@H]2CC[C@H]21)C[C@@]1(CCCc2cc(Cl)ccc21)CO3 (stereo in doubt) [Example 100149, (1S,3′R,6′R,7′S,11′S,12′R)-6-chloro-7′-hydroxy-7′-(methoxymethyl)-11′,12′-dimethyl-3,4-dihydro-2H,15′H-spiro[naphthalene-1,22′-[20]oxa[13]thia[1,14]diazatetracyclo [14.7.2.0~3,6~.0~19,24~]pentacosa[16,18,24]rien]-15′-one 13′,13′-dioxide] | 186 | 0.214 | –
C[C@@H]1[C@@H](C)CCC[C@@](O)(CS(=O)(=O)N2CCN(C)CC2)[C@@H]2CC[C@H]2CN2C[C@@]3(CCCc4cc(Cl)ccc43)COc3ccc(cc32)C(=O)NS1(=O)=O [Example 100139, (1S,3′R,6′R,7′S,11′S,12′R)-6-chloro-7′-hydroxy-11′,12′-dimethyl-7′-(((4-methyl-1-piperazinyl)sulfonyl)methyl)-3,4-dihydro-2H,15′H-spiro[naphthalene-1,22′-[20]oxa[13]thia[1,14]diazatetracyclo [14.7.2.0~3,6~.0~19,24~]pentacosa[16,18,24]trien]-15′-one 13′,13′-dioxide] | – | 2.58 | IC50 [1, 5]: 974 nM
CC[C@@H]1CCCC[C@](O)(COC)[C@@H]2CC[C@H]2CN2C[C@@]3(CCCc4cc(Cl)ccc43)COc3ccc(cc32)C(=O)NS1(=O)=O [Example 100040, (1S,3′R,6′R,7′R,12′R)-6-chloro-12′-ethyl-7′-hydroxy-7′-(methoxymethyl)-3,4-dihydro-2H,15′H-spiro[naphthalene-1,22′-[20]oxa[13]thia[1,14]diazatetracyclo [14.7.2.0~3,6~.0~19,24~]pentacosa[16,18,24]trien]-15′-one 13′,13′-dioxide] | 4950 | 2.75 | –
COC1=NO[C@@]2(CCC[C@H](C)[C@@H](C)S(=O)(=O)NC(=O)c3ccc4c(c3)N(C[C@@H]3CC[C@H]32)C[C@@]2(CCCc3cc(Cl)ccc32)CO4)C1 [Example 100134, (1S,3′R,6′R,7′S,11′S,12′R)-6-chloro-3″- methoxy-11′,12′-dimethyl-3,4-dihydro-2H,4″H,15′H-dispiro[naphthalene-1,22′-[20]oxa[13]thia[1,14]diazatetracyclo [14.7.2.0~3,6~.0~19,24~]pentacosa[16,18,24]triene-7′,5″-[1,2]oxazol]-15′-one 13′,13′-dioxide] | 3510 | 0.845 | –
C[C@@H]1[C@@H](C)C/C=C/[C@@](O)(c2cncnc2)[C@@H]2CC[C@H]2CN2C[C@@]3(CCCc4cc(Cl)ccc43)COc3ccc(cc32)C(=O)NS1(=O)=O (single isomer, unassigned) [Example 100434] | 482 | 0.162 | –
CO[C@]1(CN2CCN3CCN(S(C)(=O)=O)C[C@@H]3C2)/C=C/C[C@H](C)[C@@H](C)S(=O)(=O)NC(=O)c2ccc3c(c2)N(C[C@@H]2CC[C@H]21)C[C@@]1(CCCc2cc(Cl)ccc21)CO3 [Example 227] | – | – | IC50 [1, 6]: 131 nM; IC50 [2, 7]: 0.207 nM
CO[C@]1(C=O)/C=C/C[C@H](C)[C@@H](Cc2ccccc2)S(=O)(=O)NC(=O)c2ccc3c(c2)N(C[C@@H]2CC[C@H]21)C[C@@]1(CCCc2cc(Cl)ccc21)CO3 (single isomer, unassigned) [Example 100575] | 2500 | 1.3 | –
CO[C@@]1(C#CCCN2CCN(S(C)(=O)=O)CC2)/C=C/C[C@H](C)[C@@H](C)S(=O)(=O)NC(=O)c2ccc3c(c2)N(C[C@@H]2CC[C@H]21)C[C@@]1(CCCc2cc(Cl)ccc21)CO3 [Example 100488, (1S,3′R,6′R,7′S,8′E,11′S,12′R)-6-chloro-7′-methoxy-11′,12′-dimethyl-7′-(4-(4-(methylsulfonyl)-1-piperazinyl)-1-butyn-1-yl)-3,4-dihydro-2H,15′H-spiro[naphthalene-1,22′-[20]oxa[13]thia[1,14]diazatetracyclo [14.7.2.0~3,6~.0~19,24~]pentacosa[8,16,18,24]tetraen]-15′-one 13′,13′-dioxide] | 346 | 0.389 | –
CO[C@@]1(CN2CCN3CCS(=O)(=O)C[C@@H]3C2)/C=C/C[C@H](C)[C@@H](C)S(=O)(=O)NC(=O)c2ccc3c(c2)N(C[C@@H]2CC[C@H]21)C[C@@]1(CCCc2cc(Cl)ccc21)CO3 (single isomer, unassigned) [Example 231] | – | – | IC50 [1, 6]: 98 nM; IC50 [2, 7]: 0.061 nM
C#C[C@@]1(OC)/C=C/C[C@H](C)[C@@H](C)S(=O)(=O)NC(=O)c2ccc3c(c2)N(C[C@@H]2CC[C@H]21)C[C@@]1(CCCc2cc(Cl)ccc21)CO3 [Example 100503, (1S,3′R,6′R,7′R,8′E,11′S,12′R)-6-chloro-7′-ethynyl-7′-methoxy-11′,12′-dimethyl-3,4-dihydro-2H,15′H-spiro[naphthalene-1,22′-[20]oxa[13]thia[1,14]diazatetracyclo [14.7.2.0~3,6~.0~19,24~]pentacosa[8,16,18,24]tetraen]-15′-one 13′,13′-dioxide] | 706 | 0.493 | –
CO[C@@]1(CN2CCC=C(F)C2)/C=C/C[C@H](C)[C@@H](C)S(=O)(=O)NC(=O)c2ccc3c(c2)N(C[C@@H]2CC[C@H]21)C[C@@]1(CCCc2cc(Cl)ccc21)CO3 [Example 68, (1S,3′R,6′R,7′S,8′E,11′S,12′R)-6-chloro-7′-((5-fluoro-3,6-dihydro-1(2H)-pyridinyl)methyl)-7′-methoxy-11′,12′-dimethyl-3,4-dihydro-2H,15′H-spiro[naphthalene-1,22′-[20]oxa[13]thia[1,14]diazatetracyclo [14.7.2.0~3,6~.0~19,24~]pentacosa[8,16,18,24]tetraen]-15′-one 13′,13′-dioxide] | – | – | IC50 ([1]; Homo sapiens, OPM-2, 16 h, read-out: OPM-2 10% FBS IC50 IP, OPM-2 cells, 10% FBS, 16 h incubation): 1520 nM; IC50 [2, 7]: 0.397 nM
C[C@@H]1[C@@H](C)CCC[C@@](O)(CC(=O)N2CCCC2)[C@@H]2CC[C@H]2CN2C[C@@]3(CCCc4cc(Cl)ccc43)COc3ccc(cc32)C(=O)NS1(=O)=O [Example 100108, (1S,3′R,6′R,7′R,11′S,12′R)-6-chloro-7′-hydroxy-11′,12′-dimethyl-7′-(2-oxo-2-(1-pyrrolidinyl)ethyl)-3,4-dihydro-2H,15′H-spiro[naphthalene-1,22′-[20]oxa[13]thia[1,14]diazatetracyclo [14.7.2.0~3,6~.0~19,24~]pentacosa[16,18,24]trien]-15′-one 13′,13′-dioxide] | – | 0.436 | IC50 [1, 5]: 358 nM
C[C@@H]1[C@@H](C)C/C=C/[C@@](O)(CC(=O)N(C)CCN(C)C)[C@@H]2CC[C@H]2CN2C[C@@]3(CCCc4cc(Cl)ccc43)COc3ccc(cc32)C(=O)NS1(=O)=O [Example 100281, 2-((1S,3′R,6′R,7′S,8′E,11′S,12′R)-6-chloro-7′-hydroxy-11′,12′-dimethyl-13′,13′-dioxido-15′-oxo-3,4-dihydro-2H-spiro[naphthalene-1,22′-[20]oxa[13]thia[1,14]diazatetracyclo [14.7.2.0~3,6~.0~19,24~]pentacosa[8,16,18,24]tetraen]-7′-yl)-N-(2-(dimethylamino)ethyl)-N-methylacetamide] | – | 0.117 | IC50 [1, 5]: 352 nM
CO[C@]1(C#CCCO)/C=C/C[C@H](C)[C@@H](C)S(=O)(=O)NC(=O)c2ccc3c(c2)N(C[C@@H]2CC[C@H]21)C[C@@]1(CCCc2cc(Cl)ccc21)CO3 [Example 100426, (1S,3′R,6′R,7′R,8′E,11′S,12′R)-6-chloro-7′-(4-hydroxy-1-butyn-1-yl)-7′-methoxy-11′,12′-dimethyl-3,4-dihydro-2H,15′H-spiro[naphthalene-1,22′-[20]oxa[13]thia[1,14]diazatetracyclo [14.7.2.0~3,6~.0~19,24~]pentacosa[8,16,18,24]tetraen]-15′-one 13′,13′-dioxide] | 110 | 0.197 | –
C[C@@H]1[C@@H](C)CCC[C@@](O)(C2SCCCS2)[C@@H]2CC[C@H]2CN2C[C@@]3(CCCc4cc(Cl)ccc43)COc3ccc(cc32)C(=O)NS1(=O)=O [Example 100238, (1S,3′R,6′R,7′S,11′S,12′R)-6-chloro-7′-(1,3-dithian-2-yl)-7′-hydroxy-11′,12′-dimethyl-3,4-dihydro-2H,15′H-spiro[naphthalene-1,22′-[20]oxa[13]thia[1,14]diazatetracyclo [14.7.2.0~3,6~.0~19,24~]pentacosa[16,18,24]trien]-15′-one 13′,13′-dioxide] | 747 | 0.474 | –
COCCOC[C@]1(O)/C=C/C[C@H](C)[C@@H](C)S(=O)(=O)NC(=O)c2ccc3c(c2)N(C[C@@H]2CC[C@H]21)C[C@@]1(CCCc2cc(Cl)ccc21)CO3 [Example 100444, (1S,3′R,6′R,7′S,8′E,11′S,12′R)-6-chloro-7′-hydroxy-7′-((2-methoxyethoxy)methyl)-11′,12′-dimethyl-3,4-dihydro-2H,15′H-spiro[naphthalene-1,22′-[20]oxa[13]thia[1,14]diazatetracyclo [14.7.2.0~3,6~.0~19,24~]pentacosa[8,16,18,24]tetraen]-15′-one 13′,13′-dioxide] | 646 | 0.098 | –
CO[C@@]1(C2SCCCS2)/C=C/[C@H](C)[C@H](C)CS(=O)(=O)NC(=O)c2ccc3c(c2)N(C[C@@H]2CC[C@H]21)C[C@@]1(CCCc2cc(Cl)ccc21)CO3 [Example 100567, (1S,3′R,6′R,7′S,8′E,10′S,11′S)-6-chloro-7′-(1,3-dithian-2-yl)-7′-methoxy-10′,11′-dimethyl-3,4-dihydro-2H,15′H-spiro[naphthalene-1,22′-[20]oxa[13]thia[1,14]diazatetracyclo [14.7.2.0~3,6~.0~19,24~]pentacosa[8,16,18,24]tetraen]-15′-one 13′,13′-dioxide] | 249 | 0.125 | –

From patent US10821115B2, “Compounds that inhibit Mcl-1 protein” (priority 2017, dated 2020)
